Here are results for 1 compound from ChEMBL document CHEMBL4402535, “Ellagic acid a multi-target bioactive compound for drug discovery in CNS? A narrative review” (Eur J Med Chem, 2019).

In one test the target is Salmon testes DNA. As to the kind of experiment: Binding affinity to salmon DNA isolated from testis using dopamine as substrate in presence of CuCl2. In kind it is nucleic-acid assay, Salmonidae.
In another test the target is Acetylcholinesterase (Electrophorus electricus, UniProt O42275). As to the kind of experiment: Inhibition of electric eel AChE using acetylthiocholine iodide as substrate measured at 1 min intervals for 5 mins by Ellman's method. (DTNB colorimetry detects thiols as they appear.)
For test [1], the target named is Cholinesterase (Equus caballus) (UniProt P81908). Put plainly: Inhibition of equine serum BuChE using S-butyrylthiocholine chloride as substrate.
The target in test [2] is T1, Amine oxidase [flavin-containing] A (Homo sapiens, UniProt P21397).
T1 sequence (P21397 whole entry): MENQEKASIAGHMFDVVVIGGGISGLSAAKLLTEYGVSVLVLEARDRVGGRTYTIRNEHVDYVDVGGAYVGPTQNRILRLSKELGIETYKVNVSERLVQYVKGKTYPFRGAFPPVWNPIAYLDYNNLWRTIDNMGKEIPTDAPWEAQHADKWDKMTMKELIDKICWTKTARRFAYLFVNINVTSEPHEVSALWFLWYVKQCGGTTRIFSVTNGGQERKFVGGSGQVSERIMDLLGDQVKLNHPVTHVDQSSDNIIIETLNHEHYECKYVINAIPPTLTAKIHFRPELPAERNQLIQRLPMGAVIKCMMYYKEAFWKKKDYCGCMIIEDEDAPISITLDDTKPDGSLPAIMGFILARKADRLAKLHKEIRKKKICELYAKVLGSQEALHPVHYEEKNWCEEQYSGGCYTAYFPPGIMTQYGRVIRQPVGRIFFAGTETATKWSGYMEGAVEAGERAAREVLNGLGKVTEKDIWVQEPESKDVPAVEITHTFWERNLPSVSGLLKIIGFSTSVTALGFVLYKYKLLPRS
Put plainly: Inhibition of MAO-A (unknown origin).

The nature of test [3]: Antioxidant activity assessed as O2 radical scavenging activity after 1 hr. In kind it is functional.
Test [4] has as its target Acetylcholinesterase (Electrophorus electricus) (UniProt O42275). Put plainly: Inhibition of electric eel AChE using acetylthiocholine iodide as substrate.
The nature of test [5]: Antioxidant activity assessed as NO radical scavenging activity after 1 hr. In kind it is functional.
The target in test [6] is T2, Amyloid-beta precursor protein (Homo sapiens, UniProt P05067). Put plainly: Inhibition of beta amyloid in human SH-SY5Y cells. In kind it is cell-based.
The target of test [7] is T2, Amyloid-beta precursor protein. As to the kind of experiment: Inhibition of beta amyloid (unknown origin) after 12 to 24 hrs.
Test [8] in a line: Antioxidant activity assessed as DPPH radical scavenging activity. In kind it is functional. Background: DPPH is a stable violet radical that fades when it is reduced.
Test [9] can be described thus: Antioxidant activity assessed as DPPH radical scavenging activity after 1 hr. The class given is functional.

T2 sequence (P05067 whole entry): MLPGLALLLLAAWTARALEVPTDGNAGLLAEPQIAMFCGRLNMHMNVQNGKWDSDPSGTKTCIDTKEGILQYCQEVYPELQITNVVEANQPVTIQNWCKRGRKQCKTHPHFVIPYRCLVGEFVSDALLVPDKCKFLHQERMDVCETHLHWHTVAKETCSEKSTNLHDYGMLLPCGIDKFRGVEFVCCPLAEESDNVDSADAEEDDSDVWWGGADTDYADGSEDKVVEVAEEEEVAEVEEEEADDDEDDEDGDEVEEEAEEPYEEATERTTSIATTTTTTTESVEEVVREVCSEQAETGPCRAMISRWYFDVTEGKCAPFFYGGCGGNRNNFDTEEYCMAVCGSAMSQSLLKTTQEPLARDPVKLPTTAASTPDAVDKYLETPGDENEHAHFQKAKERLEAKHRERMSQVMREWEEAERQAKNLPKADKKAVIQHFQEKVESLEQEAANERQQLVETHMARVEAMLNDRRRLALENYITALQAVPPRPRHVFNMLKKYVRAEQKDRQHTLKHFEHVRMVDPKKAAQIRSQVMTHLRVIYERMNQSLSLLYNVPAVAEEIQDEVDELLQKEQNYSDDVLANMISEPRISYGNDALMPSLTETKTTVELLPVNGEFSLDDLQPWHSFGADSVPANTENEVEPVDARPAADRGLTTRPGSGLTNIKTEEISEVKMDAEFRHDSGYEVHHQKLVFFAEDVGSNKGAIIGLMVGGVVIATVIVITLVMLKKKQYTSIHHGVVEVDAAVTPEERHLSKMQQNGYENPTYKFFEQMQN
Chain of Acetylcholinesterase (O42275 whole entry): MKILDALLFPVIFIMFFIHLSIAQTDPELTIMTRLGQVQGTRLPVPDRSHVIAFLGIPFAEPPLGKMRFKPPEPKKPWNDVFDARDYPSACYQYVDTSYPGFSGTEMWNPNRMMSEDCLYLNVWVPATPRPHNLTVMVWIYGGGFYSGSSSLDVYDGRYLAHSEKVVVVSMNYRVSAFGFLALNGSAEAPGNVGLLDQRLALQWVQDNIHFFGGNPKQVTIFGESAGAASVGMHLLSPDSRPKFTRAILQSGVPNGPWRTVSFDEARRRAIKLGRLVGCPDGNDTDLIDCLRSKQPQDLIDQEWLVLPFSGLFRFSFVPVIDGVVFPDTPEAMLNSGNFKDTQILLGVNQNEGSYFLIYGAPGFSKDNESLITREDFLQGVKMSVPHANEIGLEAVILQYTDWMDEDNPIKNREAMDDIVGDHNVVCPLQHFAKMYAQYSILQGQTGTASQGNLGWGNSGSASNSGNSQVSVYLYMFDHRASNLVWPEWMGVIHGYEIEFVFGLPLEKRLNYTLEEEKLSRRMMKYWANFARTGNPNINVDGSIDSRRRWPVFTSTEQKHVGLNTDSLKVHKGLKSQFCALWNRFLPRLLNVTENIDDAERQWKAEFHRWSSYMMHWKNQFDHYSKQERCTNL
Chain of Cholinesterase (Equus caballus) (P81908 whole entry): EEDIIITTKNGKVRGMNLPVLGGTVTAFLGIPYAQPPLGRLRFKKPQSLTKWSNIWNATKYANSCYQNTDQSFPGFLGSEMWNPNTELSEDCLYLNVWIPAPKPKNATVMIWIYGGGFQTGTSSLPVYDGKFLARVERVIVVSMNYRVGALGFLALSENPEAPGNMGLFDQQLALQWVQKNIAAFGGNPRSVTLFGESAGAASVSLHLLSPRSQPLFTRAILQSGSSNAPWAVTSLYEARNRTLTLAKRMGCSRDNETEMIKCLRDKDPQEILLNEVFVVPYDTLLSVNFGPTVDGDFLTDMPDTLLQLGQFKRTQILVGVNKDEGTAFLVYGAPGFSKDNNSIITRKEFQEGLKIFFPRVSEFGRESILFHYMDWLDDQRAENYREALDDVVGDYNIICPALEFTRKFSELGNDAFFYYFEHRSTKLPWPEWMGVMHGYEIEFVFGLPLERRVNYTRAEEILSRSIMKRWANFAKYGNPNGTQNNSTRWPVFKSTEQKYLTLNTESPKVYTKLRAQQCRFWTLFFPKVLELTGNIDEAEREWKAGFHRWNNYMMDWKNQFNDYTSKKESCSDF
Chain of Acetylcholinesterase (Electrophorus electricus) (O42275 24-633 limits assumed): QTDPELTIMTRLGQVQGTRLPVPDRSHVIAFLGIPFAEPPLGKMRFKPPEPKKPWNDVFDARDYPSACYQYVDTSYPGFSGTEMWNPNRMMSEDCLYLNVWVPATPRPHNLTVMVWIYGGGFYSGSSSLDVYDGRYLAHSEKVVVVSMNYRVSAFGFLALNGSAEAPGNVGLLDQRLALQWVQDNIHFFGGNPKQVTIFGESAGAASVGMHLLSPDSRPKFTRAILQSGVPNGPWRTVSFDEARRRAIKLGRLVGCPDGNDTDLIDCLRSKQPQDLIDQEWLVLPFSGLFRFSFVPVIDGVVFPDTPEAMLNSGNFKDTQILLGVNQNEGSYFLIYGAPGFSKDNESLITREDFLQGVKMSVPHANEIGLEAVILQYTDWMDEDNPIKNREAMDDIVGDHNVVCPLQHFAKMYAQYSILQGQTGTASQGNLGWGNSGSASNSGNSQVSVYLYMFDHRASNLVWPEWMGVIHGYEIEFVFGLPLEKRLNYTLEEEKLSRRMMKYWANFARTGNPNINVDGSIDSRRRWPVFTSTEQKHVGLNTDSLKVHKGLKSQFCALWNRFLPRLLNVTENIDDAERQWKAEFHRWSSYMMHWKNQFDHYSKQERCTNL

By IC50 is commonly meant the concentration that inhibits the measured activity by half. For orientation: EC50 means the concentration at which the effect is half-maximal. `O=c1oc2c(O)c(O)cc3c(=O)oc4c(O)c(O)cc1c4c23` [ELLAGIC ACID]: the IC50 at Salmon testes DNA was 1 to 150 µM; against Acetylcholinesterase, 133 µM; in [6], 300 µM; in [7] it was 100 to 300 µM; in test [9] it was 31.1 µM. Besides, the EC16 in test [1] was 250 µM. The EC50 in test [2] was found to be 1.6 µM; in test [3] it was 177 µM; in test [5] it was 24.2 µM; in [8] it was 6.9 µM. The compound further returned an EC24 in test [4] of 250 µM.
